Structures are written as SMILES. Converted amounts (≈) assume the structure as drawn.

This is an account of results in US20040192686A1, “Benzoazine mono-N-oxides and benzoazine 1,4 dioxides and compositions therefrom for the therapeutic use in cancer treatments” (Auckland Uniservices Limited, priority 2003, published 2004).

In series [1] the test system is hypoxic (radioresistant) cells in HT29 tumours. Put plainly: HT29 tumour xenograft excision assay: clonogenic survivors 18 hr after radiation and drug. Format: in vivo, mice. As for the experimental part:
Animals with subcutaneous tumours (ca 300 mg) received whole body radiation (RAD; 20 Gy) to sterilise oxygenated tumour cells. Activity of drugs against the hypoxic survivors was determined by intraperitoneal administration of solutions in 5% DMSO/saline 5 min after radiation, using TPZ alone (133 μmol/kg) or in combination with SR 4317 (1000 μmol/kg). Tumours were excised 18 hr after treatment, dissociated enzymatically, and plated to determine the number of clonogenic survivors. Values are geometric means and error bars are standard errors of the mean. Horizontal lines show historical values for untreated controls and radiation only (solid lines are means, dashed lines are 95% confidence limits. p values were determined by one-way ANOVA using only data within this experiment.
The utility of SR 4317 as a potentiator of the hypoxic cytotoxicity of TPZ was assessed in an in vivo model (HT29 tumour xenografts) as illustrated in FIG. 7. In this experiment tumour response was determined by excising tumours 18 hr after treatment and quantifying the number of clonogenic survivors by plating in vitro. TPZ was administered at a sub-efficacious dose (0.133 mmol/kg), 5 minutes after whole body radiation (20 Gy). […] No significant cytotoxicity was observed when the two compounds were administered in the absence of irradiation, indicating lack of activity against aerobic cells in tumours (FIG. 7).

The subject of series [2] is HT29 cells. Description: TPZ potentiation test: IC50 of TPZ with and without potentiator, anoxic HT29 cells. Type of series: cell-based, human. Particulars: 4 hr anoxic exposure of HT29 cells.
Series [3] is described as follows: Plasma pharmacokinetics after intraperitoneal administration. Format: in vivo, CD-1 mice. As for the experimental part: The plasma pharrmacokinetics of SR 4317 and TPZ were determined in C3H mice, alone and in combination (FIG. 6), to assess whether therapeutic concentrations of SR 4317 can be achieved in mice.
The subject of series [4] is HT29 colon carcinoma cells. Description: IC50 assay of potentiator alone, HT29 cells, 4 hr anoxic exposure, sulphorhodamine B staining. Type of series: cell-based, human. Conditions: Homo sapiens, HT-29, 4 hr exposure under anoxic conditions, cell density by sulphorhodamine B five days after washing out.
Series [5] deals with HT-29 MCLs. Type of series: in vitro ADME, human. How it is done:
Compounds are added to the donor compartment, along with ^14C-urea as an internal standard, and diffusion into the receiver compartment is monitored by HPLC and scintillation counting.
The concentrations in the Receiver compartment (normalised against the initial concentration in the Donor compartment) are plotted against those of the flux marker ^14C-urea to account for small differences in thickness of the MCLs. The fitted diffusion coefficients for TPZ (n=12) and SR 4317 (n=2) are: […] cm^2 sec^−1, respectively.
The inventors have also investigated the extravascular transport properties (tissue diffusion characteristics) of SR 4317 to assess whether it can diffuse well enough to reach hypoxic cells in tumours efficiently. This study used the multicellular layer (MCL) assay (Hicks et al., Int. J. Radiat. Oncol., Biol., Phys., 1998, 42, 641; Hicks et al., J. Pharmacol. Exper. Ther., 2001, 297, 1088), developed in this laboratory.

Series [6] is described as follows: Solubility of SR 4317. Type of series: physicochemical.
For series [7], the system named is HT29 human colon carcinoma cells. Description: Cytotoxicity (plating efficiency) in stirred single cell suspensions of HT29 cells, anoxic or aerobic. Particulars: for Potentiation of the aerobic cytotoxicity of TPZ: HT29 cells, gas phase 5% CO2 in air. From the text:
Cultures were maintained at <10 ppm O2 under a continuously-flowing stream of 5% CO2 in nitrogen and were sampled at intervals to determine plating efficiency.
Experimental conditions were as for FIG. 2, except that the gas phase was 5% CO2 in air. Values are means and error bars are ranges for duplicate cultures.
Drug exposure time was 1 hr. Error bars represent the range for duplicate determinations.

The test system of series [8] is HT29 cells. Description: Radiosensitisation of anoxic HT29 cells. Format: cell-based, human. Particulars: 0.6 mM of each agent; anoxic HT29 cells irradiated 5 min after drug addition. As for the experimental part:
Anoxic cell suspensions were irradiated 5 min after addition of pre-equilibrated anoxic drug solutions. Data are shown for duplicate determinations, and are fitted using a linear-quadratic model

Series [9] is described as follows: Approximate solubility limit in Alpha MEM culture medium containing 5% fetal calf serum. Format: physicochemical. Conditions: plasma or biological fluid, kinetic from dmso stock, dilution from DMSO stock solutions.

Take `Nc1n[n+]([O-])c2ccccc2[n+]1[O-]` [TPZ, tirapazamine, reference compound]: the “Killing of the (hypoxic) cells surviving radiation” value in series [1] (TPZ alone 0.133 mmol/kg i.p. 5 minutes after whole body radiation (20 Gy), HT29 xenografts, clonogenic survivors at 18 hr) is reported as “did not result in statistically significant killing”. In addition, the IC50 in series [2] (Homo sapiens, HT-29, mean ± sem, n = 4, read-out: IC50 for TPZ alone) is 6.8 µM.
`Nc1nc2ccccc2[n+]([O-])n1` [Compound 3, 1,2,4-Benzotriazin-3-amine 1-oxide]: in series [3] (after intraperitoneal co-administration of TPZ + SR 4317 (750 μmol/kg), mice), the “Maximum SR 4317 concentration in plasma” value is roughly 200 µM. For the same molecule, the “Plasma concentrations in mice” value in series [3] (general statement) was “relatively low”. Also, the Clearance from plasma entry in series [3] (over the first two hours after co-administration of TPZ and SR 4317, mice) is reported as “slow clearance”. The “Activity of radiation + TPZ + SR 4317 compared with radiation alone” value in [1] (SR 4317 1 mmol/kg added to TPZ 0.133 mmol/kg after 20 Gy, p<0.01 by one way ANOVA) is reported as “greater than radiation alone”. In addition, the “Difference between radiation+TPZ and radiation+TPZ+SR 4317” value in series [1] (SR 4317 1 mmol/kg, TPZ 0.133 mmol/kg, 20 Gy, p <0.05) was “significant”. Moreover, the 50% inhibitory concentration (IC50) in series [4] is greater than 500 µM. Also, the “Transport through hypoxic MCLs” value in series [5] is reported as “faster than for TPZ”. Also, the “TPR (TPZ potentiation ratio) = TPZ IC50 without potentiator/TPZ IC50 with potentiator” value in series [2] (conc of potentiator 0.5 mM) turned out to be 2.0. Also, the solubility in series [6] (aqueous solution, read-out: Aqueous solubility) was roughly 800 µM (≈ 130 µg/mL); in [6] (as stated for the HT29 cell suspension experiment (FIG. 1), read-out: Solubility limit), roughly 1000 µM (≈ 162 µg/mL); in series [9], 800 µM (≈ 130 µg/mL). Also, the “Potentiation of the cytotoxicity of TPZ to hypoxic tumour cells” value in series [7] (HT29 cells in culture, anoxic (<10 ppm O2), TPZ 30 μM, simultaneous exposure) is “increased quite markedly”. Besides, the “Potentiation of the aerobic cytotoxicity of TPZ” value in series [7] (listed as SR 4317) was “does not potentiate”; in series [7] (listed as SR4317), “lack of potentiation”. The “Potentiation of TPZ cytotoxicity” value in series [7] (SR 4317 at 100 μM for 1 hr, TPZ 30 μM, anoxic HT29 cells) is recorded as “significant potentiation”. Besides, the “Relative dose potency for potentiation of the hypoxic cytotoxicity of TPZ” value in [7] (TPZ 30 μM, anoxic HT29 cells 5×10^5/ml, drug exposure 1 hr) is listed as “SR 4317>metronidazole=misonidazole”. Moreover, the “Toxicity of SR4317 alone” value in series [7] (anoxic HT29 suspension, 5×10^5 cells/ml, up to its solubility limit (ca 1 mM)) is reported as “non-toxic”. Besides, the “Relative potency for radiosensitization of hypoxic HT29 cells” value in series [8] is given as “misonidazole>metronidazole=SR4317”.

As usually defined, the IC50 is the concentration needed to halve the response being measured. A word on the solubility: it is the dissolved amount per volume that the medium holds.
